According to ChEMBL document CHEMBL1201861, “Genomics of Drug Sensitity in Cancer screening data, Wellcome Trust Sanger Institute”:

What was measured:
Assay in all cases: cells
Settings in all cases: Homo sapiens
HuTu80 = format: functional, cell-based, HUTU-80;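 also: growth inhibition of HuTu80 human cells, determined with a cell viability readout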
Description: SANGER: Inhibition of human HUTU-80 cell growth in a cell viability assay.

L-428 = format: functional, cell-based
Description: SANGER: Inhibition of human L-428 cell growth in a cell viability assay.

HT = format: functional, cell-based
Description: SANGER: Inhibition of human HT cell growth in a cell viability assay.

COLO-668 = format: functional, cell-based
Description: SANGER: Inhibition of human COLO-668 cell growth in a cell viability assay.

K562 = format: functional, cell-based
Description: SANGER: Inhibition of human K-562 cell growth in a cell viability assay.

LB1047-RCC = format: functional, cell-based;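 also: inhibition of cell growth, determined with a cell viability assay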
Description: SANGER: Inhibition of human LB1047-RCC cell growth in a cell viability assay.

QIMR-WIL = format: functional, cell-based;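 also: growth inhibition of QIMR-WIL cells, read out with a cell viability assay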
Description: SANGER: Inhibition of human QIMR-WIL cell growth in a cell viability assay.

DOHH-2 = format: functional, cell-based;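 also: growth inhibition of human DOHH-2 cells, read out with a cell viability assay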
Description: SANGER: Inhibition of human DOHH-2 cell growth in a cell viability assay.

NB5 = format: functional, cell-based;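 also: growth inhibition of NB5 cells, read out as cell viability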
Description: SANGER: Inhibition of human NB5 cell growth in a cell viability assay.

ES1 = format: functional, cell-based;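 also: growth inhibition of ES1 cells, read out with a cell viability assay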
Description: SANGER: Inhibition of human ES1 cell growth in a cell viability assay.

TK-10 = format: functional, cell-based;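 also: growth inhibition of TK-10 cells, read out in a cell viability assay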
Description: SANGER: Inhibition of human TK10 cell growth in a cell viability assay.

NB6 = format: functional, cell-based
Description: SANGER: Inhibition of human NB6 cell growth in a cell viability assay.

RPMI-8866 = format: functional, cell-based
Description: SANGER: Inhibition of human RPMI-8866 cell growth in a cell viability assay.

TE-6 = format: functional, cell-based;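 also: growth inhibition of TE-6 cells, read out with a cell viability assay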
Description: SANGER: Inhibition of human TE-6 cell growth in a cell viability assay.

KM-H2 = format: functional, cell-based;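 also: growth inhibition of KM-H2 cells, read out by a cell viability assay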
Description: SANGER: Inhibition of human KM-H2 cell growth in a cell viability assay.

A388 = format: functional, cell-based;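 also: growth inhibition of human A388 cells, read out with a cell viability assay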
Description: SANGER: Inhibition of human A388 cell growth in a cell viability assay.

SNU-C2B = format: functional, cell-based;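 also: cell viability readout used to measure compound-driven suppression of SNU-C2B cell proliferation, IC50 marking half-maximal growth inhibition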
Description: SANGER: Inhibition of human SNU-C2B cell growth in a cell viability assay.

A101D = format: functional, cell-based;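 also: growth inhibition of the cell line, measured with a viability assay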
Description: SANGER: Inhibition of human A101D cell growth in a cell viability assay.

697 = format: functional, cell-based
Description: SANGER: Inhibition of human 697 cell growth in a cell viability assay.

MFH-ino = format: functional, cell-based;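 also: growth inhibition of human MFH-ino cells, read out by a cell viability assay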
Description: SANGER: Inhibition of human MFH-ino cell growth in a cell viability assay.

GI-1 = format: functional, cell-based;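 also: growth inhibition of human GI-1 cells, measured with a cell viability readout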
Description: SANGER: Inhibition of human GI-1 cell growth in a cell viability assay.

HCE-T = format: functional, cell-based;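 also: cell viability assay read-out, reporting inhibition of HCE-T cell growth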
Description: SANGER: Inhibition of human HCE-T cell growth in a cell viability assay.

NCI-H226 = format: functional, cell-based;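 also: cell viability read-out used to gauge growth inhibition of the cells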
Description: SANGER: Inhibition of human NCI-H226 cell growth in a cell viability assay.

GT3TKB = format: functional, cell-based;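 also: growth inhibition of the cell line, read out with a cell viability assay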
Description: SANGER: Inhibition of human GT3TKB cell growth in a cell viability assay.

ACN = format: functional, cell-based;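 also: growth inhibition of the human ACN cell line, read out via cell viability testing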
Description: SANGER: Inhibition of human ACN cell growth in a cell viability assay.

OCI-AML2 = format: functional, cell-based;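 also: growth inhibition of OCI-AML2 cells, read out with a cell viability assay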
Description: SANGER: Inhibition of human OCI-AML2 cell growth in a cell viability assay.

U-87 MG = format: functional, cell-based, U-87MG ATCC;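 also: growth inhibition of the cells measured with a viability assay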
Description: SANGER: Inhibition of human U-87-MG cell growth in a cell viability assay.

CCRF-CEM = format: functional, cell-based;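 also: inhibition of CCRF-CEM cell growth, measured by a cell viability assay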
Description: SANGER: Inhibition of human CCRF-CEM cell growth in a cell viability assay.

DMS-114 = format: functional, cell-based
COLO-824 = format: functional, cell-based
Description: SANGER: Inhibition of human COLO-824 cell growth in a cell viability assay.

TGBC24TKB = format: functional, cell-based;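 also: growth inhibition of human TGBC24TKB cells, read out with a cell viability assay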
Description: SANGER: Inhibition of human TGBC24TKB cell growth in a cell viability assay.

ES4 = format: functional, cell-based;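 also: growth inhibition of human ES4 cells, read out by a cell viability assay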
Description: SANGER: Inhibition of human ES4 cell growth in a cell viability assay.

DU-4475 = format: functional, cell-based
Description: SANGER: Inhibition of human DU-4475 cell growth in a cell viability assay.

LB831-BLC = format: functional, cell-based;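 also: growth inhibition of LB831-BLC cells, read out with a cell viability assay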
Description: SANGER: Inhibition of human LB831-BLC cell growth in a cell viability assay.

ETK-1 = format: functional, cell-based;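 also: growth inhibition of human ETK-1 cells, read out with a cell viability assay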
Description: SANGER: Inhibition of human ETK-1 cell growth in a cell viability assay.

BB65-RCC = format: functional, cell-based;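 also: growth inhibition of the cell line, measured with a cell viability assay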
Description: SANGER: Inhibition of human BB65-RCC cell growth in a cell viability assay.

SK-PN-DW = format: functional, cell-based;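 also: growth inhibition measured with a viability assay on these cells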
Description: SANGER: Inhibition of human SK-PN-DW cell growth in a cell viability assay.

NCI-H1395 = format: functional, cell-based;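 also: cell viability assay read-out quantifying reduced proliferation of human NCI-H1395 cells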
Description: SANGER: Inhibition of human NCI-H1395 cell growth in a cell viability assay.

JVM-3 = format: functional, cell-based;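 also: growth inhibition of human JVM-3 cells, read out with a cell viability assay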
Description: SANGER: Inhibition of human JVM-3 cell growth in a cell viability assay.

IA-LM = format: functional, cell-based;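 also: cell viability assay measuring growth inhibition of human IA-LM cells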
Description: SANGER: Inhibition of human IA-LM cell growth in a cell viability assay.

KM12 = format: functional, cell-based;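 also: KM12 cell growth inhibition, read out with a cell viability assay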
Description: SANGER: Inhibition of human KM12 cell growth in a cell viability assay.

TE-10 = format: functional, cell-based;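 also: growth inhibition of TE-10 cells, measured by a cell viability assay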
Description: SANGER: Inhibition of human TE-10 cell growth in a cell viability assay.

BB30-HNC = format: functional, cell-based;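 also: growth inhibition of the cultured cell line, read out by a cell viability assay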
Description: SANGER: Inhibition of human BB30-HNC cell growth in a cell viability assay.

COLO-829 = format: functional, cell-based
Description: SANGER: Inhibition of human COLO-829 cell growth in a cell viability assay.

ES3 = format: functional, cell-based;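 also: growth inhibition of ES3 cells, read out with a cell viability assay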
Description: SANGER: Inhibition of human ES3 cell growth in a cell viability assay.

LS-1034 = format: functional, cell-based
Description: SANGER: Inhibition of human LS-1034 cell growth in a cell viability assay.

LS-411N = format: functional, cell-based
ONS-76 = format: functional, cell-based;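 also: growth inhibition of human ONS-76 cells, read out with a cell viability assay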
Description: SANGER: Inhibition of human ONS-76 cell growth in a cell viability assay.

LOX IMVI = format: functional, cell-based
Description: SANGER: Inhibition of human LOXIMVI cell growth in a cell viability assay.

NB69 = format: functional, cell-based;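 also: growth inhibition of NB69 cells, determined by a cell viability assay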
Description: SANGER: Inhibition of human NB69 cell growth in a cell viability assay.

KLE = format: functional, cell-based;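 also: growth inhibition of human KLE cells, read out with a cell viability assay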
Description: SANGER: Inhibition of human KLE cell growth in a cell viability assay.

SHP77 = format: functional, cell-based, SHP-77;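 also: growth inhibition of human SHP-77 cells measured by a cell viability assay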
Description: SANGER: Inhibition of human SHP-77 cell growth in a cell viability assay.

A4-Fuk = format: functional, cell-based;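 also: growth inhibition of A4-Fuk cells, read out by a cell viability assay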
Description: SANGER: Inhibition of human A4-Fuk cell growth in a cell viability assay.

MMAC-SF = format: functional, cell-based;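 also: growth inhibition of human MMAC-SF cells, read out with a cell viability assay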
Description: SANGER: Inhibition of human MMAC-SF cell growth in a cell viability assay.

KNS-81-FD = format: functional, cell-based;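 also: growth inhibition of KNS-81-FD cells, read out with a cell viability assay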
Description: SANGER: Inhibition of human KNS-81-FD cell growth in a cell viability assay.

C2BBe1 = format: functional, cell-based;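 also: growth inhibition of C2BBe1 cells, read out through a viability assay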
Description: SANGER: Inhibition of human C2BBe1 cell growth in a cell viability assay.

LXF-289 cell line = format: functional, cell-based
Description: SANGER: Inhibition of human LXF-289 cell growth in a cell viability assay.

MHH-PREB-1 = format: functional, cell-based;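 also: cell viability assay measuring inhibition of proliferation of human MHH-PREB-1 cells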
Description: SANGER: Inhibition of human MHH-PREB-1 cell growth in a cell viability assay.

SNB-75 = format: functional, cell-based;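 also: cell viability assay measuring growth inhibition of human SNB-75 cells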
Description: SANGER: Inhibition of human SNB75 cell growth in a cell viability assay.

HCE-4 = format: functional, cell-based;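 also: cell viability assay measuring inhibition of growth in the human HCE-4 cell line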
Description: SANGER: Inhibition of human HCE-4 cell growth in a cell viability assay.

UACC-257 = format: functional, cell-based
Description: SANGER: Inhibition of human UACC-257 cell growth in a cell viability assay.

ML-2 = format: functional, cell-based;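 also: growth inhibition of ML-2 cells, measured with a cell viability readout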
Description: SANGER: Inhibition of human ML-2 cell growth in a cell viability assay.

SW 954 = format: functional, cell-based;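 also: growth inhibition of SW954 human cancer cells, read out as cell viability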
Description: SANGER: Inhibition of human SW954 cell growth in a cell viability assay.

SF-126 = format: functional, cell-based;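 also: growth inhibition of human SF126 cells, read out with a cell viability assay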
Description: SANGER: Inhibition of human SF126 cell growth in a cell viability assay.

Ramos-2G6-4C10 = format: functional, cell-based;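 also: growth inhibition of the cell line, measured by a cell viability read-out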
Description: SANGER: Inhibition of human Ramos-2G6-4C10 cell growth in a cell viability assay.

`CC[C@]1(O)C[C@@H]2CN(CCc3c([nH]c4ccccc34)[C@@](C(=O)OC)(c3cc4c(cc3OC)N(C)[C@H]3[C@@](O)(C(=O)OC)[C@H](OC(C)=O)[C@]5(CC)C=CCN6CC[C@]43[C@@H]65)C2)C1` [VINBLASTINE] was tested, and the IC50 (HuTu80) was 0.0123 µM, the IC50 (L-428) was > 0.1 µM and the IC50 (HT) was 0.0156 µM. The IC50 (COLO-668) was > 0.1 µM, the IC50 (K562) was > 0.1 µM and the IC50 (LB1047-RCC) was 0.0403 µM. For the same compound, the IC50 (QIMR-WIL) was 0.00895 µM, the IC50 (DOHH-2) was 0.00181 µM and the IC50 (NB5) was 0.0157 µM. The IC50 (ES1) was 0.00471 µM, the IC50 (TK-10) was 0.0424 µM and the IC50 (NB6) was 0.08 µM. It also gave an IC50 (RPMI-8866) of 0.00197 µM, an IC50 (TE-6) of 0.0565 µM and an IC50 (KM-H2) of 0.00534 µM. The IC50 (A388) was 0.00691 µM, the IC50 (SNU-C2B) was 0.0247 µM and the IC50 (A101D) was 0.0314 µM. The IC50 697 was 0.00623 µM, the IC50 (MFH-ino) was > 0.1 µM and the IC50 (GI-1) was 0.00436 µM. It also gave an IC50 (HCE-T) of 0.02 µM, an IC50 (NCI-H226) of 0.0138 µM and an IC50 (GT3TKB) of 0.00192 µM. The IC50 (ACN) was 0.0403 µM, the IC50 (OCI-AML2) was > 0.1 µM and the IC50 (U-87 MG) was 0.03 µM. The IC50 (CCRF-CEM) was 0.0101 µM, the IC50 (DMS-114) was 0.0209 µM and the IC50 (COLO-824) was > 0.1 µM. The IC50 (TGBC24TKB) was 0.0325 µM, the IC50 (ES4) was 0.0138 µM and the IC50 (DU-4475) was > 0.1 µM. The IC50 (LB831-BLC) was 0.0212 µM, the IC50 (ETK-1) was 0.00579 µM and the IC50 (BB65-RCC) was 0.0207 µM. For the same compound, the IC50 (SK-PN-DW) was 0.00614 µM, the IC50 (NCI-H1395) was 0.00428 µM and the IC50 (JVM-3) was 0.0017 µM. It also gave an IC50 (IA-LM) of 0.0686 µM, an IC50 (KM12) of 0.0144 µM and an IC50 (TE-10) of 0.0215 µM. For the same compound, the IC50 (BB30-HNC) was 0.00831 µM, the IC50 (COLO-829) was 0.0192 µM and the IC50 (ES3) was 0.00277 µM. The IC50 (LS-1034) was > 0.1 µM, the IC50 (LS-411N) was 0.0664 µM and the IC50 (ONS-76) was 0.00374 µM. The IC50 (LOX IMVI) was 0.00698 µM, the IC50 (NB69) was 0.00573 µM and the IC50 (KLE) was > 0.1 µM. The IC50 (SHP77) was > 0.1 µM, the IC50 (A4-Fuk) was 0.00187 µM and the IC50 (MMAC-SF) was 0.0151 µM. For the same compound, the IC50 (KNS-81-FD) was 0.0202 µM, the IC50 (C2BBe1) was 0.0169 µM and the IC50 (LXF-289 cell line) was 0.0103 µM. It also gave an IC50 (MHH-PREB-1) of 0.00149 µM, an IC50 (SNB-75) of 0.0112 µM and an IC50 (HCE-4) of 0.0181 µM. For the same compound, the IC50 (UACC-257) was 0.0905 µM, the IC50 (ML-2) was 0.00865 µM and the IC50 (SW 954) was 0.00966 µM. It also gave an IC50 (SF-126) of 0.0219 µM and an IC50 (Ramos-2G6-4C10) of 0.00155 µM.

For `Cc1nc(Nc2ncc(C(=O)Nc3c(C)cccc3Cl)s2)cc(N2CCN(CCO)CC2)n1` [DASATINIB], the IC50 (HuTu80) was 0.314 µM, the IC50 (L-428) was > 1.28 µM and the IC50 (HT) was > 1.28 µM. The IC50 (COLO-668) was > 1.28 µM, the IC50 (K562) was < 0.005 µM and the IC50 (LB1047-RCC) was 0.00989 µM. The IC50 (QIMR-WIL) was 0.706 µM, the IC50 (DOHH-2) was 0.0172 µM and the IC50 (NB5) was > 1.28 µM. For the same compound, the IC50 (ES1) was > 1.28 µM, the IC50 (TK-10) was 0.0117 µM and the IC50 (NB6) was > 1.28 µM. For the same compound, the IC50 (RPMI-8866) was > 1.28 µM, the IC50 (TE-6) was 1.21 µM and the IC50 (KM-H2) was > 1.28 µM. The IC50 (A388) was 0.0509 µM, the IC50 (SNU-C2B) was > 1.28 µM and the IC50 (A101D) was 1.03 µM. The IC50 697 was 0.2 µM, the IC50 (MFH-ino) was 0.0472 µM and the IC50 (GI-1) was > 1.28 µM. For the same compound, the IC50 (HCE-T) was > 1.28 µM, the IC50 (NCI-H226) was > 1.28 µM and the IC50 (GT3TKB) was > 1.28 µM. For the same compound, the IC50 (ACN) was > 1.28 µM, the IC50 (OCI-AML2) was > 1.28 µM and the IC50 (U-87 MG) was > 1.28 µM. For the same compound, the IC50 (CCRF-CEM) was > 1.28 µM, the IC50 (DMS-114) was > 1.28 µM and the IC50 (COLO-824) was > 1.28 µM. For the same compound, the IC50 (TGBC24TKB) was 0.0476 µM, the IC50 (ES4) was 1.05 µM and the IC50 (DU-4475) was > 1.28 µM. It also gave an IC50 (LB831-BLC) of 0.0461 µM, an IC50 (ETK-1) of 0.0283 µM and an IC50 (BB65-RCC) of 0.0823 µM. The IC50 (SK-PN-DW) was > 1.28 µM, the IC50 (NCI-H1395) was > 1.28 µM and the IC50 (JVM-3) was > 1.28 µM. For the same compound, the IC50 (IA-LM) was > 1.28 µM, the IC50 (KM12) was > 1.28 µM and the IC50 (TE-10) was 0.0636 µM. For the same compound, the IC50 (BB30-HNC) was 0.0544 µM, the IC50 (COLO-829) was 0.122 µM and the IC50 (ES3) was > 1.28 µM. For the same compound, the IC50 (LS-1034) was > 1.28 µM, the IC50 (LS-411N) was > 1.28 µM and the IC50 (ONS-76) was 0.43 µM. It also gave an IC50 (LOX IMVI) of 0.315 µM, an IC50 (NB69) of 0.144 µM and an IC50 (KLE) of 0.113 µM. The IC50 (SHP77) was > 1.28 µM, the IC50 (A4-Fuk) was > 1.28 µM and the IC50 (MMAC-SF) was > 1.28 µM. For the same compound, the IC50 (KNS-81-FD) was > 1.28 µM, the IC50 (C2BBe1) was 0.0831 µM and the IC50 (LXF-289 cell line) was 0.0396 µM. The IC50 (MHH-PREB-1) was 0.745 µM, the IC50 (SNB-75) was 0.0444 µM and the IC50 (HCE-4) was 0.264 µM. For the same compound, the IC50 (UACC-257) was > 1.28 µM, the IC50 (ML-2) was > 1.28 µM and the IC50 (SW 954) was 0.0293 µM. For the same compound, the IC50 (SF-126) was 0.354 µM and the IC50 (Ramos-2G6-4C10) was > 1.28 µM.
